Measured values as given in patent US20150290333A1, “PROCESS AND MATERIALS FOR MEDICAL APPLICATIONS” (NATIONAL UNIVERSITY OF SINGAPORE, priority 2012, published 2015).

Test system: human mesenchymal stem cells
Test: Pinocytosis inhibition studies
Assay type: cell-based
Details: PVP, Fc70, Fc400
Method: Cells were viewed with a FV300 laser scanning confocal microscope (Olympus, Japan). The excitation beam from a 543-nm HeNe ion laser (MellesGriot, Singapore) was focused by a water immersion objective (60×, NA1.2, Olympus) into the fluorescent sample. For organelle co-localization studies, an additional 488-nm Ar laser (MellesGriot, Singapore) was used to excite fluorescent organelle labels. Images were acquired with the Olympus FV300 software.
hMSCs (Lonza) were pre-incubated for 1 hour with 10 mM methyl beta cyclodextrin (MBCD, Sigma-Aldrich), 28 μM chlorpromazine (CPZ, Sigma-Aldrich), 300 μM amiloride (Am, Sigma-Aldrich), and 10 μM monensin (Mon, Sigma-Aldrich) in serum-free LGDMEM. The cells were then incubated for a further 1 hour with a mixture of each inhibitor and each TRITC-labelled polymer in serum-free LGDMEM.

N=C(N)NC(=O)c1nc(Cl)c(N)nc1N [Am, amiloride]
Effect of pinocytosis inhibitor on uptake of TRITC-labelled polymers (300 μM inhibitor): no significant effects

CN(C)CCCN1c2ccccc2Sc2ccc(Cl)cc21 [CPZ, chlorpromazine]
Effect of pinocytosis inhibitor on uptake of TRITC-labelled polymers (28 μM inhibitor): reduced polymer presence across the board, but trapped Fc in the worm-like compartments

CC[C@@]1([C@@H]2O[C@@H]([C@H]3O[C@@](O)(CO)[C@H](C)C[C@@H]3C)C[C@@H]2C)CC[C@H]([C@]2(C)CC[C@]3(C[C@H](O)[C@@H](C)[C@@H]([C@@H](C)[C@@H](OC)[C@H](C)C(=O)O)O3)O2)O1 [Monensin, monensin]
Effect of pinocytosis inhibitor on uptake of TRITC-labelled polymers (10 μM inhibitor): did not inhibit uptake of polymers but arrested them in a seam of vesicles at the periphery of the cells

methyl-beta-cyclodextrin [MβCD]
Effect of pinocytosis inhibitor on uptake of TRITC-labelled polymers (10 mM inhibitor): completely inhibited uptake of all polymers
